Measurements: ChEMBL document CHEMBL1201862, “PubChem BioAssay data set” (2004)
Calls of active or inactive are those of the source.

How the values were obtained:
[1] = molecular target: T1, Cytochrome P450 2C9 (Homo sapiens, UniProt P11712)
[2] = molecular target: Cytochrome P450 2D6 (Homo sapiens, UniProt P10635);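 also: CYP2D6 member of a cytochrome P450 panel assay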
[3] = molecular target: T2, Cytochrome P450 1A2 (Homo sapiens, UniProt P05177);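 also: PubChem cytochrome P450 panel assay, CYP1A2 panel member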
T2 sequence (P05177 whole entry): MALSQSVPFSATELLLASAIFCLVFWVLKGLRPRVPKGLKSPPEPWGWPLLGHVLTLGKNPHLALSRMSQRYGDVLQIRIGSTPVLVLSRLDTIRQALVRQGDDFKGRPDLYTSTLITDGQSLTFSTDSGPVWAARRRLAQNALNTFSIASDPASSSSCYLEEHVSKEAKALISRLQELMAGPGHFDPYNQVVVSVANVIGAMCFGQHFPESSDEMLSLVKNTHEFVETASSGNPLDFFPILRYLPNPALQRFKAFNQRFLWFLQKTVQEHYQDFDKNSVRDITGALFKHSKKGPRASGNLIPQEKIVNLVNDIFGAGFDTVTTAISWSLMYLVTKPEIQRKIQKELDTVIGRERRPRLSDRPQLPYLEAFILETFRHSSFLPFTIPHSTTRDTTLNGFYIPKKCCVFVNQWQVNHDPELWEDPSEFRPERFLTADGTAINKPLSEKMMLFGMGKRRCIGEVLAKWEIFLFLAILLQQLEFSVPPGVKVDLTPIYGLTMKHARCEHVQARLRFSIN

[4] = molecular target: T1, Cytochrome P450 2C9; remark: listed apart in the source
[5] = system: H9c2; assay: cells; format: functional, cell-based; conditions: Rattus norvegicus, H9c2, Myocardium;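 also: confirmatory concentration-response retest of ultra-high-throughput screening hits for modulation of myocardial damage; cell death induced by hydrogen peroxide oxidative stress; compound pretreatment for 60 min then peroxide exposure for 2 h; potency is for protecting the cells against peroxide damage rather than for killing them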
[6] = Luminescence Cell-Based Dose Retest to Confirm Inhibitors of Cancer Stem Cells. [Related pubchem assays (depositor defined):AID2717, AID2721]; format: functional; conditions: Homo sapiens
[7] = NIH3T3 cell viability loss – ATP luminescence, mouse fibroblasts, counter-screen, dose response (AID 2010); format: functional, cell-based;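 also: cells exposed to compound for about 90 hours before reading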
[8] = Trypanosoma cruzi growth suppression in host cells – NIH3T3 host cells, beta-gal luminescence, confirmation (AID 2044); format: functional, cell-based;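 also: intracellular parasites grown in NIH/3T3 mouse fibroblasts as host cells; luminescent beta-galactosidase reporter signal from transgenic T. cruzi replicating inside host cells; inhibitors lower the luminescence signal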
[9] = viability of PTEN-deleted HCT116 cells – cell-based, HCT116 PTEN knockout, dose response (AID 1047); format: functional;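 also: HCT116 colon tumor cells with PTEN knocked out; cells exposed to compound for 60 hours before readout; potency for loss of cell viability measured by luminescence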
[10] = molecular target: Nonstructural protein 1 (Influenza A virus, UniProt Q194T2); format: functional, Influenza A virus (A/California/07/2009(H1N1))
[11] = viability of HCT116 lacking mutant beta-catenin – cell-based, human colon tumor, dose response (AID 1045); format: functional;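 also: HCT116 colon tumor cells with beta catenin knocked out; cells exposed to compound for 60 hours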
[12] = molecular target: T3, Fatty acid synthase (Homo sapiens, UniProt P49327); assay: inhibition of human FAS-TE enzyme activity – biochemical, endpoint fluorescence intensity, uHTS hits, dose response (AID 624327); format: functional;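 also: fluorescence from hydrolysis of an O-methyl fluorescein acyl ester substrate by the enzyme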
[13] = HEK-293T viability loss after treatment – luminescence, T-cell screen hits, cytotoxicity control for TCR NF-kB inhibitor project, dose response (AID 489026); format: functional, cell-based;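 also: cells exposed to compound about 14 hours before the viability readout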
[14] = molecular target: T3, Fatty acid synthase; assay: inhibition of human FAS-TE enzyme activity – biochemical, kinetic fluorescence intensity, dose response (AID 624326); format: functional;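 also: rate of fluorescence rise from hydrolysis of a fluorogenic O-methyl fluorescein ester substrate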
[15] = system: INS1; assay: INS-1E survival protection against cytokine death – cell-based, luminescence, retest, dose response (AID 449756); format: functional; conditions: Rattus norvegicus;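 also: cell death triggered by IL-1 beta plus TNF-alpha plus IFN-gamma mixture; protective hits raise ATP signal compared with cytokine alone wells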
[16] = molecular target: T4, Sentrin-specific protease 7 (Homo sapiens, UniProt Q9BQF6); format: functional;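 also: Luminescence-based dose-response confirmation of ultra-high-throughput screening hits, measuring inhibition of SENP7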
T4 sequence (Q9BQF6 whole entry): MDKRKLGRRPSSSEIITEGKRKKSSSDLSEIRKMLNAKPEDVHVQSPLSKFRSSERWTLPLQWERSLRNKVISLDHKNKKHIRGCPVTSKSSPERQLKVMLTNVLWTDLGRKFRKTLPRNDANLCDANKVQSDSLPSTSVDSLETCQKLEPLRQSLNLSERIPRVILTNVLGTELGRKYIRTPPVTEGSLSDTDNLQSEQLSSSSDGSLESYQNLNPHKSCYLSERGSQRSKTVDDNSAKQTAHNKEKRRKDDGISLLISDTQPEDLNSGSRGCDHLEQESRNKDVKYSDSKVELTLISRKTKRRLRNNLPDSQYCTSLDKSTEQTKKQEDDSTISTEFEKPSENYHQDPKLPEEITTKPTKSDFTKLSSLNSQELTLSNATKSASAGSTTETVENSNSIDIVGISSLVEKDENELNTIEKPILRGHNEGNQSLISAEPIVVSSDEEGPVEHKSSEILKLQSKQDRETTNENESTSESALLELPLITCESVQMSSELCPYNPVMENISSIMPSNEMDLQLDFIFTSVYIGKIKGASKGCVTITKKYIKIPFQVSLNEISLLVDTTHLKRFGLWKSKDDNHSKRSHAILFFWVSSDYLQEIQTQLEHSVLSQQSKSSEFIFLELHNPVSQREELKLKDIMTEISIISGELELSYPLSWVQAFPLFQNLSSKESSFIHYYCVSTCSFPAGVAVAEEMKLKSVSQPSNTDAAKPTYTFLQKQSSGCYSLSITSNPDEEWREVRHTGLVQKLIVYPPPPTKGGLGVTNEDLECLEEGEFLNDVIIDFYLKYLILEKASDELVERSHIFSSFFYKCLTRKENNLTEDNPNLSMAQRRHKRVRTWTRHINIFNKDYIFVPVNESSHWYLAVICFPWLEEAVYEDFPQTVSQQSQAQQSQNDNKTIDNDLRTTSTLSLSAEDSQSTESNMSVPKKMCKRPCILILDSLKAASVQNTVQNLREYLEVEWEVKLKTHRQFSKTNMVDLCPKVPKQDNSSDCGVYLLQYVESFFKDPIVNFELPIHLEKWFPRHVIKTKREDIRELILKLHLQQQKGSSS

[17] = molecular target: T5, Sentrin-specific protease 8 (Homo sapiens, UniProt Q96LD8); format: functional;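 also: luminescence read-out of SENP8 inhibition, dose-response confirmation following an ultra-high-throughput screen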
T5 sequence (Q96LD8 whole entry): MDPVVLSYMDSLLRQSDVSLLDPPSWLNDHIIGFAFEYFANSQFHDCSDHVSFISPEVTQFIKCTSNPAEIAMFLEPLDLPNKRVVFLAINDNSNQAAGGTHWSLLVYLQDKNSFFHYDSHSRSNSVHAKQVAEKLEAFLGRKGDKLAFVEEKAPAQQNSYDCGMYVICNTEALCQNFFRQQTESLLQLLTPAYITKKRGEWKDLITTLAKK

[18] = molecular target: T6, Sentrin-specific protease 6 (Homo sapiens, UniProt Q9GZR1); format: functional;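 also: Luminescence-based dose-response confirmatory assay of SENP6 inhibition, following up an ultra-high-throughput screen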
T6 sequence (Q9GZR1 whole entry): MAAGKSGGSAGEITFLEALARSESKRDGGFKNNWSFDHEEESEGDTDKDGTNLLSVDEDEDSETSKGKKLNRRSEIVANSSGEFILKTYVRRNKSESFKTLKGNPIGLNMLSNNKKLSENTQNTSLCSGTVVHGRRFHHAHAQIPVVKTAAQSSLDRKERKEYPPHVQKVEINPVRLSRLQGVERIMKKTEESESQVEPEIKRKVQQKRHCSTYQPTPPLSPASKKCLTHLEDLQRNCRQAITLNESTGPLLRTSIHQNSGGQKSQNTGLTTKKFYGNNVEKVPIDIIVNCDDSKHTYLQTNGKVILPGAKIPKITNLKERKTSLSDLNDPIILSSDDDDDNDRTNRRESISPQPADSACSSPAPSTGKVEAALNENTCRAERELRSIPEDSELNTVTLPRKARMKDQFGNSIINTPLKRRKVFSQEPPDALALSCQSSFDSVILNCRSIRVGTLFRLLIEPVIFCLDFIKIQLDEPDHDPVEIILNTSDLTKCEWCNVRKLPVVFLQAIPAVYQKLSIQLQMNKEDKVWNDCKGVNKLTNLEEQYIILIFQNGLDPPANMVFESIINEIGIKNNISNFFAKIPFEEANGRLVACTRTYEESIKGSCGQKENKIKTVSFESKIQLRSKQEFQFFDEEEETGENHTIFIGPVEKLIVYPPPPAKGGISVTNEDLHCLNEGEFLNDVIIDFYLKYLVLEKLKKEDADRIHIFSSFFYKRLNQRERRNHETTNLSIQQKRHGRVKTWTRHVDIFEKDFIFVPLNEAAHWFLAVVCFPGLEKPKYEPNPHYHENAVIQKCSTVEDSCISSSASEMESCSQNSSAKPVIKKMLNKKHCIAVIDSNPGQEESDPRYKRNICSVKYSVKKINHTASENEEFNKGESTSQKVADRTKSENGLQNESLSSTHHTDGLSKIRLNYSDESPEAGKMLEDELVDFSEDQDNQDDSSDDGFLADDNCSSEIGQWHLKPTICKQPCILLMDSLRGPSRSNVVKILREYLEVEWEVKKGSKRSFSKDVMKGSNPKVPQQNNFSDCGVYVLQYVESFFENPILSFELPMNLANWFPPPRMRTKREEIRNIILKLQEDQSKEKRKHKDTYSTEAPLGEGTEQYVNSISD

[19] = molecular target: T7, Caspase-3 (Homo sapiens, UniProt P42574); format: functional;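 also: Dose-response selectivity test against caspase-3 for candidate inhibitors of sentrin-specific proteases (SENPs)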
T7 sequence (P42574 whole entry): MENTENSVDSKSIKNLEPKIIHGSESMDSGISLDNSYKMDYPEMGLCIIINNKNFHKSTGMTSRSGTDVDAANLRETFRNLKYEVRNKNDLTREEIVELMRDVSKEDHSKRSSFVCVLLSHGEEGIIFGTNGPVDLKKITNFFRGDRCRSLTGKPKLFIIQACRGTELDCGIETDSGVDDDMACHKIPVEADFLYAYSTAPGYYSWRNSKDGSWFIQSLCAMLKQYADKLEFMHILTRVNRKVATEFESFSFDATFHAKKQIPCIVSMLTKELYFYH

[20] = molecular target: Induced myeloid leukemia cell differentiation protein Mcl-1 (Homo sapiens, UniProt Q07820); format: functional
[21] = molecular target: Cytochrome P450 3A4 (Homo sapiens, UniProt P08684);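 also: CYP3A4 tested as one member of a cytochrome P450 panel screen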
[22] = molecular target: Cytochrome P450 2C19 (Homo sapiens, UniProt P33261); assay: Cytochrome panel assay with activity outcomes. Panel member name: p450-cyp2c19 Compounds with AC50 equal or less than 10 uM are considered active; format: functional
Cytochrome P450 2C19, sequence (P33261 whole entry): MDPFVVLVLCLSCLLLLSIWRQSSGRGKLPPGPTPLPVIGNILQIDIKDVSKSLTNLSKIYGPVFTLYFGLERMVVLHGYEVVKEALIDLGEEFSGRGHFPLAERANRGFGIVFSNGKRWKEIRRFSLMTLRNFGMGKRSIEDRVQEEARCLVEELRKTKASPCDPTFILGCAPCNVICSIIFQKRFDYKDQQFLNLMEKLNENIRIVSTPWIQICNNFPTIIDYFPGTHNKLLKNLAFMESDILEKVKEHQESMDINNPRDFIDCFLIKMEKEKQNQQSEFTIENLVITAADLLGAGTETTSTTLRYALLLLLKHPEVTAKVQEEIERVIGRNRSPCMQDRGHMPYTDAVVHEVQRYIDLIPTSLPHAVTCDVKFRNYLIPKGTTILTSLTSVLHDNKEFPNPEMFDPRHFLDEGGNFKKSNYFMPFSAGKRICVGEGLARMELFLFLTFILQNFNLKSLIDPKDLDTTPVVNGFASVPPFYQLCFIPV

Cytochrome P450 2D6, sequence (P10635 whole entry): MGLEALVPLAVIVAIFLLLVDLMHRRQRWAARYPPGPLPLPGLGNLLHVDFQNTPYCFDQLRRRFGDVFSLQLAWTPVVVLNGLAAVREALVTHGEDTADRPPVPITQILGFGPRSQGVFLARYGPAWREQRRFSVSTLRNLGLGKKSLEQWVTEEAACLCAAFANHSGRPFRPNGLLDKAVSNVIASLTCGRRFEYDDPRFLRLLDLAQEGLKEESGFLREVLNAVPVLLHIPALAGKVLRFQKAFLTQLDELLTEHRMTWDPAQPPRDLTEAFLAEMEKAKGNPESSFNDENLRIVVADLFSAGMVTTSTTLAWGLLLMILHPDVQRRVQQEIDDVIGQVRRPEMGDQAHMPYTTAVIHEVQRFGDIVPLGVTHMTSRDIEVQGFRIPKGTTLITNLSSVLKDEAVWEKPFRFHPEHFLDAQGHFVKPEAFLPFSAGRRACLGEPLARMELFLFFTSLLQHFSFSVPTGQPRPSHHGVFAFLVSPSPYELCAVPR
T1 sequence (P11712 whole entry): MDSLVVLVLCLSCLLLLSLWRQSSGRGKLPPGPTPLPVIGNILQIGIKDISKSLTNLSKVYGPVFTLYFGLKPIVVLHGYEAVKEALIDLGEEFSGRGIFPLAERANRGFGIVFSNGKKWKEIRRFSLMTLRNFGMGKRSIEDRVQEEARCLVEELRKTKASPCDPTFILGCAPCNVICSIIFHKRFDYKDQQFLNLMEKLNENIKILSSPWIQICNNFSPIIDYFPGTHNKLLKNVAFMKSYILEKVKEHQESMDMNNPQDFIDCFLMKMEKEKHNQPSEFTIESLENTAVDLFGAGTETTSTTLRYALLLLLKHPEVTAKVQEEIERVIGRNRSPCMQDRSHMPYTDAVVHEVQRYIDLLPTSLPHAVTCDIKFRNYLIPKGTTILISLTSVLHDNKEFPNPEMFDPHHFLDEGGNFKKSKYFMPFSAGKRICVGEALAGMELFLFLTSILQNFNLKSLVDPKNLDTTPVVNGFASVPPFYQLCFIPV
T3 sequence (P49327 whole entry): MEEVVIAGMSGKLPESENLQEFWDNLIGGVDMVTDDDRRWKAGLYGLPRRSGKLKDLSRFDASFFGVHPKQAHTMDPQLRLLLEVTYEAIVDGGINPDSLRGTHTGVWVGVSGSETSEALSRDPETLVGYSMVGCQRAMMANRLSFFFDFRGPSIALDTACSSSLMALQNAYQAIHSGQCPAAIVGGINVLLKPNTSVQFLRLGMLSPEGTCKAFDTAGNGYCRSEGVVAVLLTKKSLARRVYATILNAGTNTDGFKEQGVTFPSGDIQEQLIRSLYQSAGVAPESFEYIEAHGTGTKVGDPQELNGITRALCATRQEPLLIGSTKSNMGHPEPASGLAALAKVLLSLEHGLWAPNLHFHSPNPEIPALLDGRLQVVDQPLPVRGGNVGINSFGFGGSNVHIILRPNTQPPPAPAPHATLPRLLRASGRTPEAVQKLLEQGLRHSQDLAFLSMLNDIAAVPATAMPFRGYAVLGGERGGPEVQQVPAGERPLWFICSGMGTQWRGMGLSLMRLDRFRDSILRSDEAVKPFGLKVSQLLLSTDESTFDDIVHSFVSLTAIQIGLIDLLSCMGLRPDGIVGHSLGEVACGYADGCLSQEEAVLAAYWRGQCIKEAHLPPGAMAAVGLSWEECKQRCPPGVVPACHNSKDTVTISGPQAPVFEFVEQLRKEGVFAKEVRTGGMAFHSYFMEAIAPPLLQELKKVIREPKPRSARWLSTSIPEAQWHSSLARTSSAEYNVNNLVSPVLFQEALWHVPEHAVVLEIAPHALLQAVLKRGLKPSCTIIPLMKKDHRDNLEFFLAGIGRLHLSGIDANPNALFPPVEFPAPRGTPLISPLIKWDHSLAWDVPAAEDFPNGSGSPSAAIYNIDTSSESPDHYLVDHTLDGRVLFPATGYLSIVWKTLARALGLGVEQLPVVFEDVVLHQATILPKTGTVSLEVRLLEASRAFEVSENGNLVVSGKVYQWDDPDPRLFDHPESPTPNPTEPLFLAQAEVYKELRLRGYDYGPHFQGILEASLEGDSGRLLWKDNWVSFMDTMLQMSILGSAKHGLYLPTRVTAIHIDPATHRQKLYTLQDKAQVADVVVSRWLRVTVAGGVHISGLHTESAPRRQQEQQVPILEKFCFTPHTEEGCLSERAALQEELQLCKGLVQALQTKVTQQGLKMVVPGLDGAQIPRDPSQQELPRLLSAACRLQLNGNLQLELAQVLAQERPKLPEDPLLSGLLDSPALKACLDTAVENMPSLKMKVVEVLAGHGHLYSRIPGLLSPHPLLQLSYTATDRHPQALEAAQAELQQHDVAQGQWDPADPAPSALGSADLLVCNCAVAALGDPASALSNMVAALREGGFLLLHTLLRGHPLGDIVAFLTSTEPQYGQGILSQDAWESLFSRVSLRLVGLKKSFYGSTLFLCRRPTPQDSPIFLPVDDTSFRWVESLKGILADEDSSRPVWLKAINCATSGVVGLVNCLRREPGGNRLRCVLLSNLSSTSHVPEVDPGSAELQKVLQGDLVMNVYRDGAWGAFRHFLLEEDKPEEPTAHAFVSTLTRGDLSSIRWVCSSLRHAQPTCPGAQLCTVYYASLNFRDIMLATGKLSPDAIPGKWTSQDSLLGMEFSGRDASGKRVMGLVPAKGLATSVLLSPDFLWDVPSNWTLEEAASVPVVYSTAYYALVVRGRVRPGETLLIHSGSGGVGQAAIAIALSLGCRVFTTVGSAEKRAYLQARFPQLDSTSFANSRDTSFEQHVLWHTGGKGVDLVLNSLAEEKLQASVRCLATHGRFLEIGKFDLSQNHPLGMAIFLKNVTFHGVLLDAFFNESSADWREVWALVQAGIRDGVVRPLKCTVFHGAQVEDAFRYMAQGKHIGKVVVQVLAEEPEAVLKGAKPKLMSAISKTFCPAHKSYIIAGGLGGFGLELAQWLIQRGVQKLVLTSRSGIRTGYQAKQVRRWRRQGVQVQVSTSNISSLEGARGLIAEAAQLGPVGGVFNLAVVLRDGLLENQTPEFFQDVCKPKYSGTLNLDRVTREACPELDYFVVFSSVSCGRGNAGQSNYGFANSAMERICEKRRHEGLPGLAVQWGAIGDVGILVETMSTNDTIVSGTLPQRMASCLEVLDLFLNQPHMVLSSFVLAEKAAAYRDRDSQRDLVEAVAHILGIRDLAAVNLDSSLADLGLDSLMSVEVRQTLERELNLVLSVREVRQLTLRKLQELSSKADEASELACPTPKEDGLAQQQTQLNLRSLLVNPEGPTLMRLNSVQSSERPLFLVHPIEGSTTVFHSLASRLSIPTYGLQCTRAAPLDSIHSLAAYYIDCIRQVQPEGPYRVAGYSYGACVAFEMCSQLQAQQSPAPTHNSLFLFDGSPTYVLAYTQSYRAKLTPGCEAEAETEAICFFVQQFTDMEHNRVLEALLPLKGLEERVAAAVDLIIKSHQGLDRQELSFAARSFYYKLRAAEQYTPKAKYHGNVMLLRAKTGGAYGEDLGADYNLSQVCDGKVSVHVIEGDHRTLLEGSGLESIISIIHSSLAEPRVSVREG
Cytochrome P450 3A4, sequence (P08684 whole entry): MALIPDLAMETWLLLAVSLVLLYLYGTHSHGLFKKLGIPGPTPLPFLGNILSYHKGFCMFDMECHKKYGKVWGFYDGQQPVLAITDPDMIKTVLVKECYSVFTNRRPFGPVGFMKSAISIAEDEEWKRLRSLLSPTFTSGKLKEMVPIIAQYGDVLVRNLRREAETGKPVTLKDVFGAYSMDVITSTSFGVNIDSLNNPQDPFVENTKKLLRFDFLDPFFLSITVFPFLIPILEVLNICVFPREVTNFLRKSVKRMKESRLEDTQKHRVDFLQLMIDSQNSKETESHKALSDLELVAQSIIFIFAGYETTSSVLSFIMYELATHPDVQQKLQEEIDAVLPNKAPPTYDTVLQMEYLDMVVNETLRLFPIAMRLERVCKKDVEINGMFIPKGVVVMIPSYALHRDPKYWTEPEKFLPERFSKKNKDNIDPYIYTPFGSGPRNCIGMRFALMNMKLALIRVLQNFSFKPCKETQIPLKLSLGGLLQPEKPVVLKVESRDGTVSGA
Induced myeloid leukemia cell differentiation protein Mcl-1, sequence (Q07820 whole entry): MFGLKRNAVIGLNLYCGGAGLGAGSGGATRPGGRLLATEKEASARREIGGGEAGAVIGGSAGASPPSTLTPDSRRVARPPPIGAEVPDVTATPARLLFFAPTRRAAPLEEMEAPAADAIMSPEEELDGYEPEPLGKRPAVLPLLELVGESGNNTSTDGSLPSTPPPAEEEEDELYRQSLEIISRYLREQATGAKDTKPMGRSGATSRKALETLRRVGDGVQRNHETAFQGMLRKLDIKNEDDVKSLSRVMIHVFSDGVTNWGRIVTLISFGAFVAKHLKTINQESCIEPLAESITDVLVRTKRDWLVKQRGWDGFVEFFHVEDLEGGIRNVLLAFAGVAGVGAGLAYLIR
Nonstructural protein 1, sequence (Q194T2 whole entry): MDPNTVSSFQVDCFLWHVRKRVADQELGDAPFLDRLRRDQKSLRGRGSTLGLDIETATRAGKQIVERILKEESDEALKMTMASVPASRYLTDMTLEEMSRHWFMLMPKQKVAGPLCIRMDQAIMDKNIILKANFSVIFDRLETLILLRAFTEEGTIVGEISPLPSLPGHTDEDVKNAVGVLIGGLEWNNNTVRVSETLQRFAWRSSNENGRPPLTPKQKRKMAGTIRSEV

Compound: Cc1c(C(=O)c2ccc3ccccc3c2)c2cccc3c2n1[C@H](CN1CCOCC1)CO3
- AC50 [1]: inconclusive

Compound: CCCc1cc2c(cc1NC(=O)c1ccc(Br)cc1)OCO2
- AC50 [2]: 0.708 µM (inconclusive)
- AC50 [3]: 1.26 µM (inconclusive)
- AC50 [4]: 2.82 µM (inconclusive)
- IC50 [5]: > 79 µM (inactive)

Compound: Cc1cccc(C(=O)Nc2nnc(-c3ccc(C(C)(C)C)cc3)s2)c1
- AC50 [1]: inconclusive

Compound: Cc1cnc(CNc2ncnc3ccc(-c4ccc(N(C)C)cc4)cc23)cn1
- AC50 [2]: 25.1 µM (inconclusive)

Compound: N#C/C(=C/c1cn(-c2ccccc2)nc1-c1cccc(OCc2ccc(F)cc2)c1)C(=O)NCCCn1ccnc1
- AC50 [6]: 2.5 µM (active)
- EC50 [7]: > 30 µM (not active)
- EC50 [8]: 1.46 µM (active)
- EC50 [9]: 23.4 µM (active)
- IC50 [10]: 81.1 µM (active)
- EC50 [11]: 21.7 µM (active)

Compound: O=C(c1csnn1)N1CCC2(CCCN(c3ccccc3)C2)CC1
- AC50 [2]: 20 µM (inconclusive)

Compound: COc1ccc(C(=O)c2cnc3ccccc3c2-c2ccccc2)cc1
- AC50 [2]: 31.6 µM (inconclusive)
- AC50 [4]: 7.08 µM (inconclusive)

Compound: COc1ccc2c(c1)C(=O)N1[C@H]3c4cc(Br)ccc4OC[C@@H]3[C@H](c3ccccc3)[C@]1(C)C(=O)N2
- IC50 [12]: 17.1 µM (active)
- IC50 [13]: > 80 µM (inactive)
- IC50 [14]: 18 µM (active)

Compound: CC(C)CO/N=C1/[C@H]2O[C@@H]2[C@@H](O)[C@H]2[C@H]1CCn1c(=O)n(-c3ccccc3)c(=O)n12
- AC50 [1]: inconclusive

Compound: Cc1cc2cc(CN(Cc3cccs3)S(=O)(=O)c3ccc4c(c3)OCCO4)c(O)nc2cc1C
- EC50 [9]: 33.8 µM (active)
- EC50 [11]: 30.2 µM (active)

Compound: CN(C)S(=O)(=O)c1ccc(Nc2nc(C3CC3)nc3c2nnn3Cc2ccccc2Cl)cc1
- IC50 [13]: > 80 µM (inactive)
- AC50 [15]: 4.71 µM (active)

Compound: CN(C)c1ccc(NC(=O)CSc2nc(N)c(C(=O)Nc3ccc(N(C)C)cc3)s2)cc1
- AC50 [2]: 17.8 µM (inconclusive)

Compound: Cc1ccc(O)c(NC(=O)c2cc(-c3ccco3)on2)c1
- IC50 [16]: 8.57 µM (active)
- IC50 [17]: > 100 µM (inactive)
- IC50 [13]: > 80 µM (inactive)
- IC50 [18]: > 100 µM (inactive)
- IC50 [19]: 21.3 µM (active)

Compound: CCOC(=O)C(C(=O)OCC)C(Nc1cccc(Br)c1)c1ccccc1 (centres undefined)
- EC50 [9]: 115 µM (active)
- EC50 [11]: 147 µM (active)

Compound: O=C(c1cccc(F)c1)N1CCC2(CCCN(c3ncccn3)C2)CC1
- AC50 [2]: 31.6 µM (inconclusive)
- AC50 [3]: 25.1 µM (inconclusive)

Compound: Cc1cc(C)cc(NS(=O)(=O)c2ccc3[nH]cc(C(=O)NCc4ccco4)c(=O)c3c2)c1
- AC50 [6]: 0.428 µM (active)
- EC50 [9]: 2.68 µM (active)
- EC50 [11]: 1.78 µM (active)

Compound: COc1ccc(-n2c(=O)c(-c3cn(C)c4ccccc34)nc3cncnc32)cc1
- AC50 [1]: inconclusive

Compound: CCOC(=O)NNc1ccc2nonc2c1[N+](=O)[O-]
- IC50 [16]: 10.8 µM (active)
- IC50 [17]: 4.85 µM (active)
- IC50 [20]: 42.2 µM (active)
- IC50 [18]: 4.96 µM (active)
- IC50 [19]: 8.38 µM (active)

Compound: N#Cc1cccc(-c2cc(NCc3cccs3)ncn2)c1
- AC50 [2]: 20 µM (inconclusive)
- AC50 [21]: 1.58 µM (inconclusive)

Compound: CC(C)OCCCN1C(=O)c2[nH]nc(-c3ccccc3O)c2C1c1cccc(Cl)c1 (centres undefined)
- EC50 [9]: 25.2 µM (active)
- EC50 [11]: 27.6 µM (active)

Compound: Cc1cc(C)n(CCc2nc(-c3ccc(-c4ccccc4)cc3)cs2)n1
- IC50 [16]: 4.98 µM (active)
- IC50 [17]: 59.3 µM (active)
- IC50 [18]: 20.5 µM (active)
- IC50 [19]: 23.9 µM (active)

Compound: Br.CCCCN1C2=NCCCN2c2ccccc21
- AC50 [1]: inconclusive
- AC50 [22]: inconclusive

Compound: Oc1nc(S)nc(SCc2c(Cl)c(Cl)c(Cl)c(Cl)c2Cl)n1
- AC50 [2]: 3.98 µM (inconclusive)
